# Source: patent US20130102619A1, “2-PYRIDYLOXY-4-NITRILE OREXIN RECEPTOR ANTAGONISTS” (priority 2011, published 2013)
# pIC50, pKi: −log10 of the molar value.
# Columns and labels:
# [1] = target: T1, human orexin-2 receptor (Homo sapiens (Human), UniProt O43614); experiment: radioligand binding assay, orexin-2 receptor (membranes from CHO cells); conditions: CHO cell membranes, read-out: hOX2 hKi
# Procedure: (§1) The utility of the compounds in accordance with the present invention as orexin receptor OX1R and/or OX2R antagonists may be readily determined without undue experimentation by methodology well known in the art, including the “FLIPR Ca^2+ Flux Assay” (Okumura et al., Biochem. Biophys. Res. Comm. 280:976-981, 2001). In a typical experiment the OX1 and OX2 receptor antagonistic activity of the compounds of the present invention was determined in accordance with the following experimental method. For intracellular calcium measurements, Chinese hamster ovary (CHO) cells expressing the rat orexin-1 receptor or the human orexin-2 receptor, are grown in Iscove's modified DMEM containing 2 mM L-glutamine, […], 1% hypoxanthine-thymidine supplement, 100 U/ml penicillin, 100 ug/ml streptomycin and 10% heat-inactivated fetal calf serum (FCS). The cells are seeded at 20,000 cells/well into Becton-Dickinson black 384-well clear bottom sterile plates coated with poly-D-lysine. All reagents were from GIBCO-Invitrogen Corp. The seeded plates are incubated overnight at 37° C. and 5% CO2. Ala-6,12 human orexin-A as the agonist is prepared as a 1 mM stock solution in 1% bovine serum albumin (BSA) and diluted in assay buffer (HBSS containing 20 mM HEPES, 0.1% BSA and 2.5 mM probenecid, pH7.4) for use in the assay at a final concentration of 70 pM. Test compounds are prepared as 10 mM stock solution in DMSO, then diluted in 384-well plates, first in DMSO, then assay buffer. On the day of the assay, cells are washed 3 times with 100 ul assay buffer and then incubated for 60 min (37° C., 5% CO2) in 60 ul assay buffer containing 1 uM Fluo-4AM ester, 0.02% pluronic acid, and 1% BSA. The dye loading solution is then aspirated and cells are washed 3 times with 100 ul assay buffer. 30 ul of that same buffer is left in each well. Within the Fluorescent Imaging Plate Reader (FLIPR, Molecular Devices), test compounds are added to the plate in a volume of 25 ul, incubated for 5 min and finally 25 ul of agonist is added. Fluorescence is measured for each well at 1 second intervals for 5 minutes and the height of each fluorescence peak is compared to the height of the fluorescence peak induced by 70 pM Ala-6,12 orexin-A with buffer in place of antagonist. […] Alternatively, compound potency can be assessed by a radioligand binding assay (described in Bergman et. al. Bioorg. Med. Chem. Lett. 2008, 18, 1425-1430) in which the inhibition constant (Ki) is determined in membranes prepared from CHO cells expressing either the OX1 or OX2 receptor. The intrinsic orexin receptor antagonist activity of a compound which may be used in the present invention may be determined by these assays.
# [2] = target: OX1 receptor (hOX1) (Homo sapiens, UniProt O43613); experiment: radioligand binding assay, orexin-1 receptor (membranes from CHO cells); conditions: CHO cell membranes, read-out: hOX1 hKi
# Procedure: In a typical experiment the OX1 and OX2 receptor antagonistic activity of the compounds of the present invention was determined in accordance with the following experimental method. For intracellular calcium measurements, Chinese hamster ovary (CHO) cells expressing the rat orexin-1 receptor or the human orexin-2 receptor, are grown in Iscove's modified DMEM containing 2 mM L-glutamine, […], 1% hypoxanthine-thymidine supplement, 100 U/ml penicillin, 100 ug/ml streptomycin and 10% heat-inactivated fetal calf serum (FCS). The cells are seeded at 20,000 cells/well into Becton-Dickinson black 384-well clear bottom sterile plates coated with poly-D-lysine. All reagents were from GIBCO-Invitrogen Corp. The seeded plates are incubated overnight at 37° C. and 5% CO2. Ala-6,12 human orexin-A as the agonist is prepared as a 1 mM stock solution in 1% bovine serum albumin (BSA) and diluted in assay buffer (HBSS containing 20 mM HEPES, 0.1% BSA and 2.5 mM probenecid, pH7.4) for use in the assay at a final concentration of 70 pM. Test compounds are prepared as 10 mM stock solution in DMSO, then diluted in 384-well plates, first in DMSO, then assay buffer. On the day of the assay, cells are washed 3 times with 100 ul assay buffer and then incubated for 60 min (37° C., 5% CO2) in 60 ul assay buffer containing 1 uM Fluo-4AM ester, 0.02% pluronic acid, and 1% BSA. The dye loading solution is then aspirated and cells are washed 3 times with 100 ul assay buffer. 30 ul of that same buffer is left in each well. Within the Fluorescent Imaging Plate Reader (FLIPR, Molecular Devices), test compounds are added to the plate in a volume of 25 ul, incubated for 5 min and finally 25 ul of agonist is added. Fluorescence is measured for each well at 1 second intervals for 5 minutes and the height of each fluorescence peak is compared to the height of the fluorescence peak induced by 70 pM Ala-6,12 orexin-A with buffer in place of antagonist. […] Alternatively, compound potency can be assessed by a radioligand binding assay (described in Bergman et. al. Bioorg. Med. Chem. Lett. 2008, 18, 1425-1430) in which the inhibition constant (Ki) is determined in membranes prepared from CHO cells expressing either the OX1 or OX2 receptor. The intrinsic orexin receptor antagonist activity of a compound which may be used in the present invention may be determined by these assays.
# [3] = target: T1, human orexin-2 receptor; experiment: FLIPR Ca2+ Flux Assay, CHO cells expressing human orexin-2 receptor; type: cell-based; conditions: 70 pM Ala-6,12 orexin-A agonist, read-out: hOX2R FLIPR IC50
# Procedure: as §1
# [4] = target: rat orexin-1 receptor (Rattus norvegicus (Rat), UniProt P56718); experiment: FLIPR Ca2+ Flux Assay, CHO cells expressing rat orexin-1 receptor; type: cell-based; conditions: 70 pM Ala-6,12 orexin-A agonist, read-out: hOX1R FLIPR IC50;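 also: concentration giving 50% inhibition of the agonist-induced calcium response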
# Procedure: as §1
# rat orexin-1 receptor, sequence (P56718 whole entry): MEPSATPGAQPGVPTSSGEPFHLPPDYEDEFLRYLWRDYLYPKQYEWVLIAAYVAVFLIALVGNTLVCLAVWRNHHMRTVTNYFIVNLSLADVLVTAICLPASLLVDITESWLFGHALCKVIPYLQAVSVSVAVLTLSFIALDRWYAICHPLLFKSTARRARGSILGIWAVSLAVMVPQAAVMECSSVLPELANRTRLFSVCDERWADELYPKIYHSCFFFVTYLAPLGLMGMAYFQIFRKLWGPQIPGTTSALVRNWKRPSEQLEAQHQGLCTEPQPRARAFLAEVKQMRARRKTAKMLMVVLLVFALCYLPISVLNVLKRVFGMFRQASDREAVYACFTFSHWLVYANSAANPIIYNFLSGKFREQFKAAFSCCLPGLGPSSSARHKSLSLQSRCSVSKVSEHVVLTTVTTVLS
# T1 sequence (O43614 whole entry): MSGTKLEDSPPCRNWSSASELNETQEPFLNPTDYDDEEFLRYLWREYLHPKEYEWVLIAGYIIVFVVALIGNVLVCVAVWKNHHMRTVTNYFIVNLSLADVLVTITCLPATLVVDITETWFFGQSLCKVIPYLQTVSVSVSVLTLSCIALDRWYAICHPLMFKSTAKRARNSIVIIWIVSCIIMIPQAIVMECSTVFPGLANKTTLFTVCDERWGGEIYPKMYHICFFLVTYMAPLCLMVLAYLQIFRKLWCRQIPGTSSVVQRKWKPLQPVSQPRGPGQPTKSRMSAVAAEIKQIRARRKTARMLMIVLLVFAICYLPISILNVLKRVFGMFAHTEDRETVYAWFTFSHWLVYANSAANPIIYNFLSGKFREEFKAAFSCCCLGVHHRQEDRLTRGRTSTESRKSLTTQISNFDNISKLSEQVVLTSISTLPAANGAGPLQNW
Compound,pKi [1],pKi [2],pIC50 [3],pIC50 [4]
"C[C@@H]1CC[C@@H](Oc2cc(C#N)ccn2)CN1C(=O)c1ccc(F)cc1-n1nccn1 [Example 8, 2-{[(3R,6R)-1-{[4-fluoro-2-(2H-1,2,3-triazol-2-yl)phenyl]carbonyl}-6-methylpiperidin-3-yl]oxy}pyridine-4-carbonitrile]",8.46,5.54,7.54,< 5.00
"Cc1ccc(C(=O)N2C[C@H](Oc3cc(C#N)ccn3)CC[C@H]2C)c(-n2nccn2)c1 [Example 9, 2-{[(3R,6R)-6-methyl-1-{[4-methyl-2-(2H-1,2,3-triazol-2-yl)phenyl]carbonyl}piperidin-3-yl]oxy}pyridine-4-carbonitrile]",8.43,5.90,7.66,5.15
"C[C@@H]1CC[C@@H](Oc2cc(C#N)ccn2)CN1C(=O)c1ccsc1-n1nccn1 [Example 10, 2-{[(3R,6R)-6-methyl-1-{[2-(2H-1,2,3-triazol-2-yl)thiophen-3-yl]carbonyl}piperidin-3-yl]oxy}pyridine-4-carbonitrile]",8.23,5.45,7.54,< 5.00
"C[C@@H]1CC[C@@H](Oc2cc(C#N)ccn2)CN1C(=O)c1sccc1-n1nccn1 [Example 14, 2-{[(3R,6R)-6-methyl-1-{[3-(2H-1,2,3-triazol-2-yl)thiophen-2-yl]carbonyl}piperidin-3-yl]oxy}pyridine-4-carbonitrile]",7.82,5.27,7.19,< 5.00
"C[C@@H]1CC[C@@H](Oc2cc(C#N)ccn2)CN1C(=O)c1cc(Br)ccc1-n1nccn1 [Example 15, 2-{[(3R,6R)-1-{[5-bromo-2-(2H-1,2,3-triazol-2-yl)phenyl]carbonyl}-6-methylpiperidin-3-yl]oxy}pyridine-4-carbonitrile]",8.04,6.58,7.21,5.98
"COc1ccc(C(=O)N2C[C@H](Oc3cc(C#N)ccn3)CC[C@H]2C)c(-n2nccn2)n1 [Example 17, 2-{[(3R,6R)-1-{[6-methoxy-2-(2H-1,2,3-triazol-2-yl)pyridin-3-yl]carbonyl}-6-methylpiperidin-3-yl]oxy}pyridine-4-carbonitrile]",7.82,5.25,7.09,< 5.00
"COc1ccc(C(=O)N2C[C@H](Oc3cc(C#N)ccn3)CC[C@H]2C)c(C2CC2)n1 [Example 20, 2-({(3R,6R)-1-[(2-cyclopropyl-6-methoxypyridin-3-yl)carbonyl]-6-methylpiperidin-3-yl}oxy)pyridine-4-carbonitrile]",7.94,4.90,7.17,< 5.00
"C[C@@H]1CC[C@@H](Oc2cc(C#N)ccn2)CN1C(=O)c1c(F)cccc1-n1nccn1 [Example 22, 2-{[(3R,6R)-1-{[2-fluoro-6-(2H-1,2,3-triazol-2-yl)phenyl]carbonyl}-6-methylpipeidin-3-yl]oxy}pyridine-4-carbonitrile]",8.47,5.75,7.64,5.24
"C[C@@H]1CC[C@@H](Oc2cc(C#N)ccn2)CN1C(=O)c1ccc(Cl)cc1-n1nccn1 [Example 29, 2-{[(3R,6R)-1-{[4-chloro-2-(2H-1,2,3-triazol-2-yl)phenyl]carbonyl}-6-methylpiperidin-3-yl]oxy}pyridine-4-carbonitrile]",8.89,5.96,7.92,5.47
C[C@@H]1CC[C@@H](Oc2cc(C#N)ccn2)CN1C(=O)c1sccc1-c1ncccn1 [Example 31],8.23,5.57,7.42,< 5.00
"C[C@@H]1CC[C@@H](Oc2cc(C#N)ccn2)CN1C(=O)c1cccc(F)c1-c1ncccn1 [Example 33, 2-({(3R,6R)-1-[(3-fluoro-2-pyrimidin-2-ylphenyl)carbonyl]-6-methylpiperidin-3-yl}oxy)pyridine-4-carbonitrile]",7.91,5.77,7.28,< 5.00
